According to ChEMBL document CHEMBL3228010, “Potential antitumor agents. 29. Quantitative structure-activity relationships for the antileukemic bisquaternary ammonium heterocycles” (J Med Chem, 1979):

Tests used:
[1] = Displacement of ethidium from poly[d(A)]-poly[d(T)] DNA (unknown origin) by fluorimetric method
[2] = Lipophilic-hydrophilic balance, Rm of the compound by partition chromatography; assay type: physicochemical
Bos taurus = organism: Bos taurus; assay: Displacement of ethidium from calf thymus DNA by fluorimetric method
Mus musculus = assay: Toxicity in ip dosed C3H X DBA2 F1 hybrid mouse […] with mouse L1210 cells on day 0 and dosed once daily on days 1 to 5 measured after 50 days; assay type: organism-based; conditions: in vivo, 1200 h
L1210 [3] = assay: Antitumor activity against mouse L1210 cells […] in ip dosed C3H X DBA2 F1 hybrid mouse on day 0 and dosed once daily on days 1 to 5 assessed as increase in life span relative to control; assay type: functional
[4] = Displacement of ethidium from poly[d(A-T)]-poly[d(A-T)] DNA by fluorimetric method
L1210 [5] = assay: Antitumor activity against mouse L1210 cells […] in ip dosed C3H X DBA2 F1 hybrid mouse on day 0 and dosed at LD10 level once daily on days 1 to 5 assessed as increase in life span relative to control; assay type: functional
[6] = Displacement of ethidium from poly[d(G-C)]-poly[d(G-C)] DNA (unknown origin) by fluorimetric method

SMILES: CC[n+]1ccc(Nc2ccc(NC(=O)c3ccc(Nc4cc[n+](CC)c5cc(N)ccc45)cc3N)cc2)cc1.[Br-].[Br-]
- C50 [1]: 0.054 µM
- Rm [2]: 0.07
- C50 (Bos taurus): 0.52 µM
- LD10 (Mus musculus): 11 mg/kg
- D40 (L1210 [3]): 1.4 mg/kg
- C50 [4]: 0.13 µM
- log(ILSmax) (L1210 [5]): 2.39
- C50 [6]: 1.11 µM

SMILES: C[n+]1ccc(Nc2ccc(NC(=O)c3ccc(C(=O)Nc4ccc(Nc5cc[n+](C)cc5)cc4)cc3)cc2)cc1.Cc1ccc(S(=O)(=O)[O-])cc1.Cc1ccc(S(=O)(=O)[O-])cc1
- C50 [1]: 0.043 µM
- Rm [2]: 0.07
- C50 (Bos taurus): 1.3 µM
- LD10 (Mus musculus): 3.1 mg/kg
- D40 (L1210 [3]): 0.3 mg/kg
- C50 [4]: 0.14 µM
- log(ILSmax) (L1210 [5]): 2.33
- C50 [6]: 1.8 µM

SMILES: C[n+]1ccc(Nc2ccc(NC(=O)c3ccc(Nc4cc[n+](C)c5ccccc45)cc3)cc2N)cc1.[I-].[I-]
- C50 [1]: 0.052 µM
- Rm [2]: 0.24
- C50 (Bos taurus): 2.25 µM
- LD10 (Mus musculus): 8 mg/kg
- D40 (L1210 [3]): 2.8 mg/kg
- C50 [4]: 0.43 µM
- log(ILSmax) (L1210 [5]): 1.85
- C50 [6]: 4.76 µM

SMILES: C/C(=N\NC(=N)N)c1ccc(C(=O)Nc2ccc(Nc3cc[n+](C)c4ccc(N)cc34)cc2)cc1.Cc1ccc(S(=O)(=O)O)cc1.Cc1ccc(S(=O)(=O)[O-])cc1
- C50 [1]: 0.057 µM
- Rm [2]: -0.1
- C50 (Bos taurus): 0.4 µM
- LD10 (Mus musculus): 40 mg/kg
- D40 (L1210 [3]): 2.6 mg/kg
- C50 [4]: 0.12 µM
- log(ILSmax) (L1210 [5]): 2.37
- C50 [6]: 0.52 µM

SMILES: C[n+]1ccc(Nc2ccc(NC(=O)c3ccc(Nc4cc[n+](C)c5c(Cl)cccc45)cc3)cc2)cc1.Cc1ccc(S(=O)(=O)[O-])cc1.Cc1ccc(S(=O)(=O)[O-])cc1
- C50 [1]: 0.038 µM
- Rm [2]: 0.51
- C50 (Bos taurus): 1.1 µM
- LD10 (Mus musculus): 55 mg/kg
- D40 (L1210 [3]): 50 mg/kg
- C50 [4]: 0.29 µM
- log(ILSmax) (L1210 [5]): 1.7
- C50 [6]: 1.4 µM

SMILES: COc1cc(NC(=O)c2ccc(C(=O)Nc3ccc(C(=O)Nc4ccc[n+](C)c4)c(OC)c3)cc2)ccc1C(=O)Nc1ccc[n+](C)c1.Cc1ccc(S(=O)(=O)[O-])cc1.Cc1ccc(S(=O)(=O)[O-])cc1
- C50 [1]: 0.18 µM
- Rm [2]: 0.15
- C50 (Bos taurus): 0.4 µM
- LD10 (Mus musculus): 41 mg/kg
- D40 (L1210 [3]): 15 mg/kg
- C50 [4]: 0.3 µM
- log(ILSmax) (L1210 [5]): 1.78
- C50 [6]: 0.35 µM

SMILES: C[n+]1cccc(NC(=O)c2ccc(NC(=O)C34CCC(C(=O)Nc5ccc(C(=O)Nc6ccc[n+](C)c6)cc5)(CC3)CC4)cc2)c1.Cc1ccc(S(=O)(=O)[O-])cc1.Cc1ccc(S(=O)(=O)[O-])cc1
- C50 [1]: 1.6 µM
- Rm [2]: 0.31
- C50 (Bos taurus): 6.8 µM
- LD10 (Mus musculus): 24 mg/kg
- D40 (L1210 [3]): 4.3 mg/kg
- C50 [4]: 5.3 µM
- log(ILSmax) (L1210 [5]): 2
- C50 [6]: 11 µM

SMILES: C[n+]1ccc(Nc2ccc(NC(=O)c3ccc(Nc4cc[n+](C)c5ccc(N)cc45)cc3)cc2N)cc1.[I-].[I-]
- C50 [1]: 0.067 µM
- Rm [2]: -0.03
- C50 (Bos taurus): 0.71 µM
- LD10 (Mus musculus): 3 mg/kg
- D40 (L1210 [3]): 0.7 mg/kg
- C50 [4]: 0.23 µM
- log(ILSmax) (L1210 [5]): 2.18
- C50 [6]: 1.3 µM

SMILES: CC[n+]1cccc(NC(=O)c2ccc(NC(=O)c3ccc(C(=O)Nc4ccc(C(=O)Nc5ccc[n+](CC)c5)cc4)cc3)cc2)c1.Cc1ccc(S(=O)(=O)[O-])cc1.Cc1ccc(S(=O)(=O)[O-])cc1
- C50 [1]: 0.11 µM
- Rm [2]: -0.32
- C50 (Bos taurus): 0.48 µM
- LD10 (Mus musculus): 33 mg/kg
- D40 (L1210 [3]): 9.8 mg/kg
- C50 [4]: 0.4 µM
- log(ILSmax) (L1210 [5]): 2.24
- C50 [6]: 0.9 µM

SMILES: CCCC[n+]1cccc(NC(=O)c2ccc(NC(=O)c3ccc(C(=O)Nc4ccc(C(=O)Nc5ccc[n+](CCCC)c5)cc4)cc3)cc2)c1.Cc1ccc(S(=O)(=O)[O-])cc1.Cc1ccc(S(=O)(=O)[O-])cc1
- C50 [1]: 0.14 µM
- Rm [2]: 0.51
- C50 (Bos taurus): 0.46 µM
- LD10 (Mus musculus): 58 mg/kg
- D40 (L1210 [3]): 30 mg/kg
- C50 [4]: 0.41 µM
- log(ILSmax) (L1210 [5]): 1.76
- C50 [6]: 0.93 µM

SMILES: C[n+]1ccc(Nc2ccc(NC(=O)c3ccc(Nc4cc[n+](C)c5c(N)cccc45)cc3)cc2)cc1.[I-].[I-]
- C50 [1]: 0.056 µM
- Rm [2]: -0.1
- C50 (Bos taurus): 0.85 µM
- LD10 (Mus musculus): 60 mg/kg
- D40 (L1210 [3]): 0.9 mg/kg
- C50 [4]: 0.2 µM
- log(ILSmax) (L1210 [5]): 2.48
- C50 [6]: 1.43 µM

SMILES: C[n+]1ccc(Nc2ccc(NC(=O)c3ccc(Nc4cc[n+](C)c5ccccc45)cc3)cc2)cc1.[Br-].[Br-]
- C50 [1]: 0.036 µM
- Rm [2]: 0.29
- C50 (Bos taurus): 1.4 µM
- LD10 (Mus musculus): 13 mg/kg
- D40 (L1210 [3]): 2 mg/kg
- C50 [4]: 0.16 µM
- log(ILSmax) (L1210 [5]): 2.23
- C50 [6]: 3 µM

SMILES: C[n+]1ccc(Nc2ccc(NC(=O)c3ccc(Nc4cc[n+](C)c5ccccc45)cc3N)cc2N)cc1.[I-].[I-]
- C50 [1]: 0.12 µM
- Rm [2]: 0.08
- C50 (Bos taurus): 1.76 µM
- LD10 (Mus musculus): 18 mg/kg
- D40 (L1210 [3]): 15 mg/kg
- C50 [4]: 0.79 µM
- log(ILSmax) (L1210 [5]): 1.78
- C50 [6]: 3.17 µM

SMILES: Cc1cc(C(=O)Nc2ccc[n+](C)c2)ccc1NC(=O)c1ccc(C(=O)Nc2ccc(C(=O)Nc3ccc[n+](C)c3)cc2C)cc1.Cc1ccc(S(=O)(=O)[O-])cc1.Cc1ccc(S(=O)(=O)[O-])cc1
- C50 [1]: 0.35 µM
- Rm [2]: 0.12
- C50 (Bos taurus): 11.7 µM
- LD10 (Mus musculus): 40 mg/kg
- D40 (L1210 [3]): 27 mg/kg
- C50 [4]: 6 µM
- log(ILSmax) (L1210 [5]): 1.79
- C50 [6]: 16.7 µM

SMILES: C[n+]1ccc(Nc2ccc(NC(=O)c3ccc(Nc4cc[n+](C)c5ccc(N)cc45)cc3N)cc2)cc1.[I-].[I-]
- C50 [1]: 0.039 µM
- Rm [2]: 0.01
- C50 (Bos taurus): 0.49 µM
- LD10 (Mus musculus): 20 mg/kg
- D40 (L1210 [3]): 2.9 mg/kg
- C50 [4]: 0.1 µM
- log(ILSmax) (L1210 [5]): 2.45
- C50 [6]: 1.1 µM
